The test system of one experiment is MCF7/R. The experiment is described as follows: Cytotoxicity, SRB test, 72 h exposure, MCF7/R (resistant cells). The conditions noted are these: for IC50: Homo sapiens, MCF7R, 72 h, read-out: Cytotoxicity (IC50 (nM) 72 h exposure of cells to compound ± SE (SRB test) MCF7/R); for RI (cross-resistance index): IC50 MCF7/R versus IC50 MCF7.
The subject of a further experiment is MCF7. The experiment is described as follows: Cytotoxicity, SRB test, 72 h exposure, MCF7. The note with it: Homo sapiens, MCF7, 72 h, read-out: Cytotoxicity (IC50 (nM) 72 h exposure of cells to compound ± SE (SRB test) MCF7).

With `COCC[C@H]1OC[C@@]1(OC(C)=O)C1/C(C)=C(/OC)C(=O)C2=C(C)[C@@H](OC(=O)[C@H](O)[C@H](CC(C)C)NC(=O)OC(C)(C)C)C[C@@](O)([C@H]1OC(=O)c1ccccc1)C2(C)C` (stereo partly drawn) [Ex. 7, 13-(N-Boc-β-isobutylisoserinoyl)-7,9-of-O-methyl-C7,8-seco-10-deacetylbaccatin III], in the experiment on MCF7/R, the IC50 was 168 ± 9.5 nM and the “RI (cross-resistance index)” value is listed as 6.6. The IC50 in the experiment with MCF7 stood at 25.5 ± 2.6 nM.
The like results for `CSCOCC[C@H]1OC[C@@]1(OC(C)=O)C1/C(C)=C(/OCSC)C(=O)C2=C(C)[C@@H](OC(=O)[C@H](O)[C@H](CC(C)C)NC(=O)OC(C)(C)C)C[C@@](O)([C@H]1OC(=O)c1ccccc1)C2(C)C` (stereo partly drawn) [Ex. 5, 13-(N-Boc-β-isobutylisoserinoyl)-7,9-O-bis(methylthiomethyl)-C7,8-seco-10-deacetylbaccatin III] were, in that order, 333 ± 23 nM, 5.7 and 58 ± 5.9 nM.
The like results for `CSCOCC[C@H]1OC[C@@]1(OC(C)=O)C1/C(C)=C(/O)C(=O)C2=C(C)[C@@H](OC(=O)[C@H](O)[C@H](CC(C)C)NC(=O)OC(C)(C)C)C[C@@](O)([C@H]1OC(=O)c1ccccc1)C2(C)C` (stereo partly drawn) [Ex. 4, 13-(N-Boc-β-isobutylisoserinoyl)-7-O-methylthiomethyl-C7,8-seco-10-deacetylbaccatin III] were, in that order, 501 ± 41 nM, 19 and 26 ± 2.1 nM.
For `CO/C1=C(\C)C([C@]2(OC(C)=O)CO[C@@H]2CCOCSC)[C@H](OC(=O)c2ccccc2)[C@]2(O)C[C@H](OC(=O)[C@H](O)[C@H](CC(C)C)NC(=O)OC(C)(C)C)C(C)=C(C1=O)C2(C)C` (stereo partly drawn) [Ex. 2, 13-(N-Boc-β-isobutyl-isoserinoyl)-9-O-methyl-7-O-methylthiomethyl-C7,8-seco-10-deacetylbaccatin III] the same measures were 558 ± 28 nM, 5.4 and 103 ± 13 nM.
For `CC(=O)O[C@@]1(C2/C(C)=C(/O)C(=O)C3=C(C)[C@@H](OC(=O)[C@H](O)[C@H](CC(C)C)NC(=O)OC(C)(C)C)C[C@@](O)([C@H]2OC(=O)c2ccccc2)C3(C)C)CO[C@@H]1CCO` (stereo partly drawn) [IDN 5390, reference compound], the IC50 in the experiment with MCF7/R was 1040 ± 93 nM; in the experiment on MCF7, 11.2 ± 0.81 nM. Besides, the “RI (cross-resistance index)” value with MCF7/R amounted to 93.
For `CO/C1=C(\C)C([C@]2(OC(C)=O)CO[C@@H]2CCO)[C@H](OC(=O)c2ccccc2)[C@]2(O)C[C@H](OC(=O)[C@H](O)[C@H](CC(C)C)NC(=O)OC(C)(C)C)C(C)=C(C1=O)C2(C)C` (stereo partly drawn) [Ex. 3, 13-(N-Boc-β-isobutyl-isoserinoyl)-9-O-methyl-C7,8-seco-10-deacetylbaccatin III] the same measures were 945 ± 40 nM, 38 ± 3.9 nM and 25.
The like results for `CO/C1=C(\C)C([C@]2(OC(C)=O)CO[C@@H]2CCOC(C)=O)[C@H](OC(=O)c2ccccc2)[C@]2(O)C[C@H](OC(=O)[C@H](O)[C@H](CC(C)C)NC(=O)OC(C)(C)C)C(C)=C(C1=O)C2(C)C` (stereo partly drawn) [Ex. 6, 13-(N-Boc-β-isobutylisoserinoyl)-9-O-methyl-7-O-acetyl-C7,8-seco-10-deacetylbaccatin III] were, in that order, 747 ± 45 nM, 66 ± 5.4 nM and 11.

The record behind these values is patent US20080242878A1, “Semi-Synthetic Taxane Derivatives With Antitumor Activity” (priority 2005, published 2008).
